Where two headings read alike, the source gives them in different places.
Molecular target: T1, YSK4 (Homo sapiens, UniProt Q56UN5)
T1 construct: gene MAP3K19
T1 sequence (Q56UN5 1-1328): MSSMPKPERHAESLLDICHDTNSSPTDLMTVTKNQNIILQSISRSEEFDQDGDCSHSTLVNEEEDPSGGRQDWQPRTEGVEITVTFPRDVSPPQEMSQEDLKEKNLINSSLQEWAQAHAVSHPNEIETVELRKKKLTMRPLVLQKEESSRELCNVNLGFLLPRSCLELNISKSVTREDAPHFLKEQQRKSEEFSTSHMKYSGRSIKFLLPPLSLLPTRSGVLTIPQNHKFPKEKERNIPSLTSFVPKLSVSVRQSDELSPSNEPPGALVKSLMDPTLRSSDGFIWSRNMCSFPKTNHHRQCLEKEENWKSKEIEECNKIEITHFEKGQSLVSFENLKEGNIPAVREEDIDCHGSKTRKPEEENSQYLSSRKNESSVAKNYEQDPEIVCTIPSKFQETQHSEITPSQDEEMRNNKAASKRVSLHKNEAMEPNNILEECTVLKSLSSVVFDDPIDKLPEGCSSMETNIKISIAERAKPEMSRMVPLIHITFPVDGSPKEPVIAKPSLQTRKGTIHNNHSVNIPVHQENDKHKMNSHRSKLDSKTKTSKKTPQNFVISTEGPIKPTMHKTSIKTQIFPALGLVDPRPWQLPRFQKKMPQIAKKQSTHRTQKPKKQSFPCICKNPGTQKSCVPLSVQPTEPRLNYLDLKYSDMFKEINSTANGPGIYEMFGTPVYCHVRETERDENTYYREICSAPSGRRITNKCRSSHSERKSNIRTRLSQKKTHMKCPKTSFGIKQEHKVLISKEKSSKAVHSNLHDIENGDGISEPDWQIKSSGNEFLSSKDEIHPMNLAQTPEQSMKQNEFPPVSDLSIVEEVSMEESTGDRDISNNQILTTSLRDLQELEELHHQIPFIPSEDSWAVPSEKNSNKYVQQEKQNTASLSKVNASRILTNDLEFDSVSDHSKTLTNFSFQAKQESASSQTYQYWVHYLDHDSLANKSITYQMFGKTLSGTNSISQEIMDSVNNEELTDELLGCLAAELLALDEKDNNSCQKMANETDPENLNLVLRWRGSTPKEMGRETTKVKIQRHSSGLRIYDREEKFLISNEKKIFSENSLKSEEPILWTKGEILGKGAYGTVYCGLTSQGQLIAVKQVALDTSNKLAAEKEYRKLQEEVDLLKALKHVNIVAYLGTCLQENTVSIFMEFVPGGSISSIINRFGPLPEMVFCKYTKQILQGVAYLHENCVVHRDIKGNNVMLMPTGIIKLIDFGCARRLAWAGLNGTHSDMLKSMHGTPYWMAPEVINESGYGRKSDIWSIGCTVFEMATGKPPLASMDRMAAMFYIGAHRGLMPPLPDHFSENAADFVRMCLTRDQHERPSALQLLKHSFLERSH
Assay: biochemical
Parameters: Eurofins DiscoverX kinase panel, competitive binding assay at 1 uM, percent of DMSO control
Conditions: competitive binding, percent of DMSO control
Summary of the method: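 Single-point profiling at 1 µM compound in a competition-binding format against 96 kinases, read out as POC relative to control; n = 1.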

SMILES: CC(C)(C)NS(=O)(=O)c1cccc(NC(=O)c2ccc(S(=O)(=O)NC(C)(C)C)cc2N2CCC3(CC2)CC3)c1 [AM-1882]
- remaining activity at 1 µM (read-out: Kinome Profiling performed by Eurofins DiscoverX / AM-1882, 1.0 µM / POC): 87%

SMILES: CC(C)(CO)Nc1ccc(C(=O)Nc2cccc(S(=O)(=O)C3CCCC3)c2)c(N2CCC3(CC2)CC3)n1 [AM-0277]
- remaining activity at 1 µM (read-out: Kinome Profiling performed by Eurofins DiscoverX / AM-0277, 1.0 µM / POC): 100%

SMILES: C[C@@H]1CN(c2cccc(NC(=O)c3ccc(NS(=O)(=O)CCO)cc3N3CCC4(CC3)CC4)n2)CCO1 [AM-5308]
- remaining activity at 1 µM (read-out: Kinome Profiling performed by Eurofins DiscoverX / AM-5308, 1.0 µM / POC): 75.5%
